Experimental data reported in ChEMBL document CHEMBL1697731, “Cheminformatics analysis of assertions mined from literature that describe drug-induced liver injury in different species” (Chem Res Toxicol, 2010).

Assays:
Hepatotoxicity [1] = experiment: Literature-mined compound from Fourches et al multi-species drug-induced liver injury (DILI) dataset, effect in humans; conditions: human
Hepatotoxicity [2] = experiment: Literature-mined compound from Fourches et al multi-species drug-induced liver injury (DILI) dataset, effect in rodents; conditions: rodentia
Hepatotoxicity [3] = experiment: Literature-mined compound from Fourches et al multi-species drug-induced liver injury (DILI) dataset, effect in non-rodents

Compound	Hepatotoxicity (Hepatotoxicity [1])	Hepatotoxicity (Hepatotoxicity [2])	Hepatotoxicity (Hepatotoxicity [3])	Hepatotoxicity (Hepatotoxicity [1]; Liver)	Hepatotoxicity (Hepatotoxicity [2]; Liver)	Hepatotoxicity (Hepatotoxicity [3]; Liver)
NC[C@H]1O[C@H](O[C@H]2[C@H](O)[C@@H](O[C@H]3O[C@H](CO)[C@@H](O)[C@H](N)[C@H]3O)[C@H](N)C[C@@H]2N)[C@H](N)C[C@@H]1O [TOBRAMYCIN]	no drug-induced liver injury reported	drug-induced liver injury reported	no drug-induced liver injury reported			
CC[C@H]1OC(=O)[C@H](C)C(=O)[C@H](C)[C@@H](O[C@@H]2O[C@H](C)C[C@H](N(C)C)[C@H]2O)[C@](C)(OC)C[C@@H](C)C(=O)[C@H](C)[C@H]2N(CCCCn3cnc(-c4cccnc4)c3)C(=O)O[C@]12C [TELITHROMYCIN]				drug-induced liver injury reported	drug-induced liver injury reported	no drug-induced liver injury reported
CC(C)(C)NCC(O)c1ccc(O)c(CO)c1 (centres undefined) [ALBUTEROL]				no drug-induced liver injury reported	drug-induced liver injury reported	no drug-induced liver injury reported
COc1cccc2c1C(=O)c1c(O)c3c(c(O)c1C2=O)C[C@@](O)(C(C)=O)C[C@@H]3O[C@H]1C[C@H](N)[C@H](O)[C@H](C)O1 [DAUNORUBICIN]	drug-induced liver injury reported	drug-induced liver injury reported	no drug-induced liver injury reported			
CC(c1ccc(Cl)c(Cl)c1)N1N=C(N)CC1=O (centres undefined) [MUZOLIMINE]	drug-induced liver injury reported	no drug-induced liver injury reported	no drug-induced liver injury reported			
NC(=O)c1ncn([C@@H]2O[C@H](CO)[C@@H](O)[C@H]2O)n1 [RIBAVIRIN]	drug-induced liver injury reported	drug-induced liver injury reported	no drug-induced liver injury reported			
CC(=O)Oc1ccccc1C(=O)O.NCCCCC(N)C(=O)O [ASPIRIN DL-LYSINE]	drug-induced liver injury reported	drug-induced liver injury reported	no drug-induced liver injury reported			
N=C(N)NN [PIMAGEDINE]	no drug-induced liver injury reported	drug-induced liver injury reported	no drug-induced liver injury reported			
CNC[C@H](O)c1ccc(O)c(O)c1 [EPINEPHRINE]				drug-induced liver injury reported	drug-induced liver injury reported	drug-induced liver injury reported
CCCCNc1ccc(C(=O)OCCN(C)C)cc1 [TETRACAINE]	no drug-induced liver injury reported	drug-induced liver injury reported	no drug-induced liver injury reported			
[H]/N=C(\N/C(=N/[H])Nc1ccc(Cl)cc1)NC(C)C [PROGUANIL]	drug-induced liver injury reported	no drug-induced liver injury reported	no drug-induced liver injury reported			
CNCC[C@H](Oc1cccc2ccccc12)c1cccs1 [DULOXETINE]				drug-induced liver injury reported	no drug-induced liver injury reported	no drug-induced liver injury reported
POLYVINYL ALCOHOL	no drug-induced liver injury reported	no drug-induced liver injury reported	drug-induced liver injury reported			
N[C@@H](C(=O)N[C@@H]1C(=O)N2C(C(=O)O)=C(Cl)CS[C@H]12)c1ccccc1 [CEFACLOR ANHYDROUS]	drug-induced liver injury reported	no drug-induced liver injury reported	no drug-induced liver injury reported			
O=C1O[C@H]([C@@H](O)CO)C(O)=C1O [ASCORBIC ACID]	drug-induced liver injury reported	drug-induced liver injury reported	drug-induced liver injury reported			
O=C(OCC(O)CO)c1ccccc1Nc1ccnc2cc(Cl)ccc12 (centres undefined) [GLAFENINE]				drug-induced liver injury reported	no drug-induced liver injury reported	no drug-induced liver injury reported
VITAMIN E	drug-induced liver injury reported	drug-induced liver injury reported	drug-induced liver injury reported			
CN1C(=O)CN=C(c2ccccc2F)c2cc([N+](=O)[O-])ccc21 [FLUNITRAZEPAM]	no drug-induced liver injury reported	no drug-induced liver injury reported	drug-induced liver injury reported			
N[C@@H](Cc1c[nH]c2ccccc12)C(=O)O [TRYPTOPHAN]	no drug-induced liver injury reported	drug-induced liver injury reported	no drug-induced liver injury reported			

Compound	Hepatotoxicity (Hepatotoxicity [1])	Hepatotoxicity (Hepatotoxicity [2])	Hepatotoxicity (Hepatotoxicity [3])	Hepatotoxicity (Hepatotoxicity [1]; Liver)	Hepatotoxicity (Hepatotoxicity [2]; Liver)	Hepatotoxicity (Hepatotoxicity [3]; Liver)
CCN(CC)C(=O)/C(C#N)=C/c1cc(O)c(O)c([N+](=O)[O-])c1 [ENTACAPONE]	drug-induced liver injury reported	drug-induced liver injury reported	no drug-induced liver injury reported			
Cc1ccc(-c2cc(C(F)(F)F)nn2-c2ccc(S(N)(=O)=O)cc2)cc1 [CELECOXIB]				drug-induced liver injury reported	drug-induced liver injury reported	no drug-induced liver injury reported
CN1C[C@H](C(=O)N[C@]2(C)O[C@@]3(O)[C@@H]4CCCN4C(=O)[C@H](Cc4ccccc4)N3C2=O)C=C2c3cccc4[nH]cc(c34)C[C@H]21 [ERGOTAMINE]	drug-induced liver injury reported	no drug-induced liver injury reported	drug-induced liver injury reported			
CCCCCCCCNC(C)C(O)c1ccc(SC(C)C)cc1 (centres undefined) [SULOCTIDIL]	drug-induced liver injury reported	no drug-induced liver injury reported	no drug-induced liver injury reported			
CCCCC(=O)N(Cc1ccc(-c2ccccc2-c2nnn[nH]2)cc1)[C@H](C(=O)O)C(C)C	drug-induced liver injury reported	drug-induced liver injury reported	no drug-induced liver injury reported			
CN(C)CC/C=C1\c2ccccc2CSc2ccccc21 [DOTHIEPIN]	drug-induced liver injury reported	no drug-induced liver injury reported	no drug-induced liver injury reported			
CN(C)CCOc1ccc(/C(=C(/CCCl)c2ccccc2)c2ccccc2)cc1 [TOREMIFENE]	drug-induced liver injury reported	drug-induced liver injury reported	no drug-induced liver injury reported			
CCC1(CC)C(=O)NCC(C)C1=O (centres undefined) [METHYPRYLON]	no drug-induced liver injury reported	drug-induced liver injury reported	no drug-induced liver injury reported			
O=NN(CCCl)C(=O)NC1CCCCC1 [LOMUSTINE]	drug-induced liver injury reported	drug-induced liver injury reported	no drug-induced liver injury reported			
CNC(=O)Oc1cccc2ccccc12 [CARBARIL]	no drug-induced liver injury reported	drug-induced liver injury reported	no drug-induced liver injury reported			
CCCCCCCCCCC[C@@H](C[C@@H]1OC(=O)[C@H]1CCCCCC)OC(=O)[C@H](CC(C)C)NC=O [ORLISTAT]	drug-induced liver injury reported	no drug-induced liver injury reported	no drug-induced liver injury reported			
COc1cc(CNC(=O)CCCC/C=C/C(C)C)ccc1O [CAPSAICIN]	drug-induced liver injury reported	drug-induced liver injury reported	no drug-induced liver injury reported			
C[C@H]1O[C@@H](n2cc(F)c(=O)[nH]c2=O)[C@H](O)[C@@H]1O [DOXIFLURIDINE]	drug-induced liver injury reported	drug-induced liver injury reported	no drug-induced liver injury reported			
O=C1CN(/N=C/c2ccc(-c3ccc([N+](=O)[O-])cc3)o2)C(=O)[N-]1.[Na+] [DANTROLENE SODIUM]	no drug-induced liver injury reported	drug-induced liver injury reported	no drug-induced liver injury reported			
CC(N)=O [ACETAMIDE]	no drug-induced liver injury reported	drug-induced liver injury reported	no drug-induced liver injury reported			
NCCCC[C@H](N[C@@H](CCc1ccccc1)C(=O)O)C(=O)N1CCC[C@H]1C(=O)O [LISINOPRIL ANHYDROUS]	drug-induced liver injury reported	drug-induced liver injury reported	no drug-induced liver injury reported			
CN(Cc1cnc2nc(N)nc(N)c2n1)c1ccc(C(=O)N[C@@H](CCC(=O)O)C(=O)O)cc1 [METHOTREXATE]	drug-induced liver injury reported	drug-induced liver injury reported	drug-induced liver injury reported			
CCn1cc(C(=O)O)c(=O)c2cc(F)c(N3CCNCC3)cc21 [NORFLOXACIN]				drug-induced liver injury reported	drug-induced liver injury reported	no drug-induced liver injury reported
CN[C@H]1CC[C@@H](c2ccc(Cl)c(Cl)c2)c2ccccc21 [SERTRALINE]				drug-induced liver injury reported	drug-induced liver injury reported	no drug-induced liver injury reported
